For data set [1], the target named is T1, human D2 receptors (Homo sapiens, UniProt P14416).
T1 construct: expressed in transfected cells; host or cells: HEK-293T
Kind of data set: competitive radioligand D2 binding assay, (Methoxy-3H)-raclopride, membranes of transfected HEK-293T cells. The settings on record: mean of one or two experiments; butaclamol as control.

Data set [2] addresses human D2 dopamine receptor (Homo sapiens, UniProt P14416). The data set is described as follows: R-SAT functional receptor assay, D2 receptor co-expressed with Gαo. The settings on record: for Emax: read-out: % basal response (D2 intrinsic activity); for activity at 1 µM: read-out: D2 basal (basal response, no drug = 100%).
Data set [3] has as its target human D3 dopamine receptor (Homo sapiens, UniProt P35462). Kind of data set: R-SAT functional receptor assay, D3 receptor co-expressed with Gαo. The settings on record: for activity at 1 µM: read-out: D3 basal (basal response, no drug = 100%).
For data set [4] the following is noted: steady state kinetics in humans given clozapine; cited from earlier work.
[5] abbreviates: compounds at 1 μM, mean +/− standard error, R-SAT.

Like-named read-outs stand apart in the source and are kept apart here.

Sequence of human D2 dopamine receptor (P14416 whole entry): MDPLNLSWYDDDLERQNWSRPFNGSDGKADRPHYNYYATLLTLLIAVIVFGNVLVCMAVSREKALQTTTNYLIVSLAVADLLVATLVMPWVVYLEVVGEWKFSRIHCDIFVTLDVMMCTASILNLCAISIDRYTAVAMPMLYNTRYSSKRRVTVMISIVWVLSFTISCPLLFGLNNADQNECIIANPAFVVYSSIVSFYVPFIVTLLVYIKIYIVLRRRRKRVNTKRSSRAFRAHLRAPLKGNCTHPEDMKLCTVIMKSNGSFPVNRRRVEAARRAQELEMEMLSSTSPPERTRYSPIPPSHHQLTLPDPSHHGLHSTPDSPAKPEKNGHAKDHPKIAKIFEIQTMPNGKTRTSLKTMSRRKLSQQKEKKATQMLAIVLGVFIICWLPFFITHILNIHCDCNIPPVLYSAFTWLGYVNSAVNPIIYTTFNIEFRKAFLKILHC
T1 sequence (P14416 whole entry): as above
Sequence of human D3 dopamine receptor (P35462 whole entry): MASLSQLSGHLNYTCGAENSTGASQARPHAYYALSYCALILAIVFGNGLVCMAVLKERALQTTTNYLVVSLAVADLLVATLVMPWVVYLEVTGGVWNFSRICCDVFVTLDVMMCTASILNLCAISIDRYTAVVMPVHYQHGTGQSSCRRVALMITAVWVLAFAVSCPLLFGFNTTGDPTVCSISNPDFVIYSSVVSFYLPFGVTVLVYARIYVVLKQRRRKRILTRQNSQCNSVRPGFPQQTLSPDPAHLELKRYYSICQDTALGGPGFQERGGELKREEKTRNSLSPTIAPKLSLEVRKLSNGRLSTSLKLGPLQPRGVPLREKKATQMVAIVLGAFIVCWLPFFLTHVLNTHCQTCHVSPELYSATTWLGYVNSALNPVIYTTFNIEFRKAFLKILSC

In the case of `Fc1ccc2c(c1)N=C(N1CCNCC1)c1ccccc1O2`, the Ki – broadly, a measure of affinity in units of concentration, obtained from inhibition or displacement – in data set [1] was 501 nM. In addition, the Emax in data set [2] is 207%.

With `N#Cc1ccc2c(c1)N=C(N1CCNCC1)c1ccccc1N2`, the Ki in data set [1] is 5010 nM. The Emax in data set [2] was 201%.

Compound `Clc1ccc2c(c1)N=C(N1CCCNCC1)c1ccccc1N2` showed a Ki in data set [1] of 2000 nM. Moreover, the Emax in data set [2] is 172%.

For `Fc1ccc2c(c1)N=C(N1CCNCC1)c1ccccc1N2`, in data set [1], the Ki is 2510 nM. For the same compound, the Emax in data set [2] turned out to be 170%.

On to `Brc1ccc2c(c1)N=C(N1CCNCC1)c1ccccc1O2`, for which the inhibition constant Ki in data set [1] is 126 nM. The Emax in data set [2] came to 155%.

`Clc1ccc2c(c1)N=C(N1CCNCC1)c1ccccc1O2` showed a Ki in data set [1] of 251 nM. Further, the Emax in data set [2] came to 150%.

In the case of `Brc1ccc2c(c1)N=C(N1CCNCC1)c1ccccc1N2`, the Ki in data set [1] is 158 nM. In addition, the Emax in data set [2] came to 147%.

On to `Brc1ccc2c(c1)N=C(N1CCNCC1)CCN2`, for which the Emax in data set [2] was determined as 142%.

In data set [1], `CN1c2ccc(Cl)cc2N=C(N2CCNCC2)c2ccccc21` showed a Ki of 794 nM. Further, the Emax in data set [2] is 141%.

The compound `Cc1cccc2c1Oc1ccc(F)cc1N=C2N1CCNCC1` had a Ki in data set [1] of 316 nM. The Emax in data set [2] was 126%.

In data set [1], `Cc1cccc2c1Oc1ccc(C(F)(F)F)cc1N=C2N1CCNCC1` had an inhibition constant Ki of 2510 nM. Also, the Emax in data set [2] amounted to 118%.

Compound `Clc1ccc2c(c1)N=C(N1CC3CC1CN3)c1ccccc1N2` (stereo not shown) gave a Ki in data set [1] of 2510 nM. Also, in data set [2], the Emax was determined as 116%.

For `Cc1cccc2c1Oc1ccc(Br)cc1N=C2N1CCNCC1`, the Ki in data set [1] is 794 nM. For the same compound, the Emax in data set [2] came to 112%.

In data set [1], `Cc1cccc2c1Oc1ccc(Cl)cc1N=C2N1CCNCC1` had a Ki of 316 nM. For the same compound, the Emax in data set [2] worked out at 106%.

For the compound `Clc1ccc2c(c1)N=C(NC[C@@H]1CCCN1)c1ccccc1N2`, the inhibitory constant (Ki) in data set [1] is 1580 nM. For the same compound, the Emax in data set [2] was 105%.

Regarding `Cc1cccc2c1Nc1ccc(Cl)cc1N=C2N1CCNCC1`, in data set [1], the affinity, expressed as Ki, was 6310 nM. The Emax in data set [2] stood at 102%.

In turn, `Clc1ccc2c(c1)N=C(N1CCNCC1)c1ccccc1C2` gave an inhibition constant (Ki) in data set [1] of 12.6 nM. For the same compound, the Emax in data set [2] came out at 260%.

Turning to `CCN1CCC[C@H]1CNC(=O)c1c(O)c(Cl)cc(Cl)c1OC` (racemic) [S(−)-raclopride], the “D2 basal (basal response, no drug = 100%)” value in data set [2] (setting [5]) is 60− %. Moreover, the “D3 basal (basal response, no drug = 100%)” value in data set [3] (setting [5]) was 56− %.

For `OCCN1CCN([C@@H]2C[C@@H](c3ccc(F)cc3)c3ccc(C(F)(F)F)cc32)CC1` (racemic) [tefludazine], the activity at 1 µM worked out at 67% in data set [2] and 47% in data set [3].

With `Clc1ccc2c(c1)N=C(N1CCNCC1)c1ccccc1N2` [N-desmethylclozapine, 8-chloro-11-(1-piperazinyl)-5H-dibenzo[b,e][1,4]diazepine], the “share of NDMC in total serum clozapine concentrations” value in data set [4] is listed as 40-75%. Also, in data set [2], a half-maximal effect (EC50) was put at 31.6 nM. Also, in data set [2] (R-SAT), the “intrinsic activity at D2 receptor (in words)” value is “partial agonist” and the “relative efficacy to pergolide at D2” value is on record as 34%. For the same compound, in data set [2] (setting [5]), the “D2 basal (basal response, no drug = 100%)” value is 229 +/− 21%. Also, in data set [3], the EC50 – broadly, the concentration at which the effect is half-maximal – was 100 nM and the activity at 1 µM was 188%. Moreover, in data set [3] (R-SAT), the “intrinsic activity at D3 receptor (in words)” value is given as “partial agonist” and the “relative efficacy to pergolide at D3” value worked out at 40%.

Take `O=C(CCCN1CCC(O)(c2ccc(Br)cc2)CC1)c1ccc(F)cc1` [bromperidol]: the activity at 1 µM was 46% in data set [2] and 43% in data set [3].

For the compound `CC(C)(C)[C@]1(O)CCN2C[C@H]3c4ccccc4CCc4cccc(c43)[C@@H]2C1` [butaclamol], in data set [2] (setting [5]), the “D2 basal (basal response, no drug = 100%)” value was 60 +/− 2%.

Turning to `CCN(CC)CCCN1c2ccccc2Sc2ccc(Cl)cc21` [chlorproethazine], in data set [2] (setting [5]), the “D2 basal (basal response, no drug = 100%)” value is reported as 60 +/− 7%. The “D3 basal (basal response, no drug = 100%)” value in data set [3] (setting [5]) was 63 +/− 10%.

On to `OCCN1CCN(CC/C=C2/c3ccccc3Sc3ccc(C(F)(F)F)cc32)CC1` [cis-flupenthixol], for which the “D2 basal (basal response, no drug = 100%)” value in data set [2] was 59 +/− 4%.

On to `OCCN1CCN(CCCN2c3ccccc3Sc3ccc(C(F)(F)F)cc32)CC1` [fluphenazine], for which the activity at 1 µM in data set [2] came out at 61%; in data set [3] it was 55%.

For the compound `O=C1NCN(c2ccccc2)C12CCN(CCCC(c1ccc(F)cc1)c1ccc(F)cc1)CC2` [fluspirilene], the results for the activity at 1 µM in data set [2] and in data set [3] were 52% and 45%, respectively.

As for `CC1CCN(CCCC(=O)c2ccc(F)cc2)CC1` [melperone], the values for the activity at 1 µM in data set [2] and in data set [3] were 76% and 75%, respectively.

Consider `CCc1c(C)[nH]c2c1C(=O)C(CN1CCOCC1)CC2` (stereo not shown) [molindone], for which the activity at 1 µM in data set [2] came to 70%; in data set [3] it was 65%.

`Cc1ccc(C2(O)CCN(CCCC(=O)c3ccc(F)cc3)CC2)cc1` [moperone]: the results for the activity at 1 µM in data set [2] and in data set [3] were 64% and 52%, respectively.

On to `Cc1nc2c(C)cccn2c(=O)c1CCN1CCC(c2noc3cc(F)ccc23)CC1` [ocaperiodone], for which, in data set [2] (setting [5]), the “D2 basal (basal response, no drug = 100%)” value is reported as 62 +/− 8%. Also, in data set [3] (setting [5]), the “D3 basal (basal response, no drug = 100%)” value is listed as 51 +/− 10%.

On to `CN1CCN(C2Cc3ccccc3Sc3ccc(Cl)cc32)CC1.O=C(O)/C=C\C(=O)O` (stereo not shown) [octoclothepin], for which the “D3 basal (basal response, no drug = 100%)” value in data set [3] is 60 +/− 8%.

Take `Cc1cc2c(s1)Nc1ccccc1N=C2N1CCN(C)CC1` [olanzapine]: in data set [2], the “D2 basal (basal response, no drug = 100%)” value is 83 +/− 6%. Further, the “D3 basal (basal response, no drug = 100%)” value in data set [3] (setting [5]) is recorded as 83 +/− 6%.

As for `CN1CCN(C2=Nc3ccccc3Cc3ccccc32)CC1` [perlapine], the activity at 1 µM came to 58% in data set [2] and 74% in data set [3].

As to `O=c1[nH]c2ccccc2n1C1CCN(CCCC(c2ccc(F)cc2)c2ccc(F)cc2)CC1` [pimozide], the activity at 1 µM in data set [2] is 43%; in data set [3] it was 54%.

Take `CN1CCN(CCCN2c3ccccc3Sc3ccc(Cl)cc32)CC1` [prochlorperazine]: the activity at 1 µM in data set [2] is 57%; in data set [3], 53%.

With `CN(C)CCCN1c2ccccc2Sc2ccccc21` [promazine], the activity at 1 µM was determined as 76% in data set [2] and 83% in data set [3].

Take `Cc1nc2n(c(=O)c1CCN1CCC(c3noc4cc(F)ccc34)CC1)CCCC2` [risperidone]: in data set [2], the “D2 basal (basal response, no drug = 100%)” value is 63 +/− 2%.

Take `O=C1NCCN1CCN1CCC(c2cn(-c3ccc(F)cc3)c3ccc(Cl)cc23)CC1` [sertindole]: in data set [2], the activity at 1 µM worked out at 61%.

For the compound `O=C(CCCN1CCC2(CC1)C(=O)NCN2c1ccccc1)c1ccc(F)cc1` [spiperone], the “D2 basal (basal response, no drug = 100%)” value in data set [2] was 51 +/− 1%.

With `CCN1CCCC1CNC(=O)c1cc(S(N)(=O)=O)ccc1OC` (stereo not shown) [sulpiride], the activity at 1 µM in data set [2] came to 59%. Besides, the “D3 basal (basal response, no drug = 100%)” value in data set [3] (setting [5]) is 55 +/− 9%.

On to `CSc1ccc2c(c1)N(CCC1CCCCN1C)c1ccccc1S2` (stereo not shown) [thioridazine], for which the activity at 1 µM in data set [2] and in data set [3] was 81% throughout.

In the case of `CN1CCN(CC/C=C2/c3ccccc3Sc3ccc(S(=O)(=O)N(C)C)cc32)CC1` [thiothixene], the values for the activity at 1 µM in data set [2] and in data set [3] were 73% and 68%, respectively.

As to `CCN(CC)CCNC(=O)c1cc(S(C)(=O)=O)ccc1OC` [tiapride], the activity at 1 µM stood at 65% in data set [2] and 57% in data set [3].

Consider `OCCN1CCN(CC/C=C2\c3ccccc3Sc3ccc(C(F)(F)F)cc32)CC1` [trans-(e)-flupenthixol], for which the “D2 basal (basal response, no drug = 100%)” value in data set [2] is given as 68 +/− 4%.

In the case of `CN1CCN(CCCN2c3ccccc3Sc3ccc(C(F)(F)F)cc32)CC1` [trifluoperazine], the activity at 1 µM in data set [2] was 58%.

Turning to `O=C(CCCN1CCC(O)(c2cccc(C(F)(F)F)c2)CC1)c1ccc(F)cc1` [trifluperidol], the activity at 1 µM in data set [2] came to 58%; in data set [3] it was 54%.

Turning to `O=C1Cc2cc(CCN3CCN(c4nsc5ccccc45)CC3)c(Cl)cc2N1` [ziprasidone], in data set [2] (setting [5]), the “D2 basal (basal response, no drug = 100%)” value is listed as 66 +/− 8%.

The record behind these values is patent publication US20060252744A1 (priority 2005, published 2006).
